This note sets out measurements from patent publication US9499550B2 (BRISTOL-MYERS SQUIBB COMPANY, priority 2012, dated 2016).

Experiment [1] has as its system HCV genotype 1b (Con1) replicon in HUH-7 cells. The experiment in a line: HCV replicon luciferase reporter assay, genotype 1b. To be noted: Hepatitis C virus, Huh-7, 72 h, HCV genotype 1b replicon luciferase, 3 days incubation, read-out: LE_1b (EC50, range). The experiment is classed as cell-based. In outline: (§1)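 Replicon inhibition for both genotypes was measured as Renilla luciferase signal (EnduRen, 7.5 μM final, 2 h) after 3-day, 37° C exposure of replicon-bearing HUH-7 cells in 4% FCS DMEM, 0.5% DMSO. The 1b construct carries S1179I; the 1a H77 construct carries P1496L and S2204I. Twenty-point, 3-fold dilutions were fitted four-parametrically for EC50, and CC50 was taken from multiplexed Cell Titer-Blue.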

Experiment [2] has as its system HCV genotype 1a (H77 strain) replicon in HUH-7 cells. The experiment in a line: HCV replicon luciferase reporter assay, genotype 1a. The experiment is classed as cell-based. The following applies: Hepatitis C virus, Huh-7, 72 h, HCV genotype 1a replicon luciferase, 3 days incubation, read-out: LE_1a (EC50, range). In outline: as §1
On the technique in general: In antiviral work, replicon cells carry a viral genome segment that copies itself.

Molecules are shown by their SMILES.

Usually EC50 stands for the concentration that produces a half-maximal response.

In the case of `[2H]C([2H])([2H])C(OC(=O)N[C@@H]1C(=O)N2C[C@H](Oc3nc(-c4ccc(OC(C)C)cn4)cc4cc(OC)ccc34)C[C@H]2C(=O)N[C@]2(C(=O)NS(=O)(=O)C3CC3)C[C@H]2/C=C\CC[C@@H](C)C[C@H]1C)(C([2H])([2H])[2H])C(F)(F)F` [Compound 5205, 1,1,1,3,3,3-hexadeutero-2-(trifluoromethyl)propan-2-yl((2R,6S,7R,9R,13aS,14aR,16aS,Z)-14a-((cyclopropylsulfonyl)carbamoyl)-2-((3-(5-isopropoxypyridin-2-yl)-6-methoxyisoquinolin-1-yl)oxy)-7,9-dimethyl-5,16-dioxo-1,2,3,5,6,7,8,9,10,11,13a,14,14a,15,16,16a-hexadecahydrocyclopropa[e]pyrrolo[1,2-a][1,4]diazacyclopentadecin-6-yl)carbamate], the EC50 in experiment [1] and in experiment [2] was less than 5.46 nM each time.
`COc1ccc2c(O[C@@H]3C[C@H]4C(=O)N[C@]5(C(=O)NS(=O)(=O)C6CC6)C[C@H]5/C=C\CC[C@H](C)C[C@@H](C)[C@H](NC(=O)O[C@H](C)C(F)(F)F)C(=O)N4C3)nc(-c3ccc(OC(C)C)cn3)cc2c1` [Compound 5206, (R)-1,1,1-trifluoropropan-2-yl ((2R,6S,7R,9S,13aS,14aR,16aS,Z)-14a-((cyclopropylsulfonyl)carbamoyl)-2-((3-(5-isopropoxypyridin-2-yl)-6-methoxyisoquinolin-1-yl)oxy)-7,9-dimethyl-5,16-dioxo-1,2,3,5,6,7,8,9,10,11,13a,14,14a,15,16,16a-hexadecahydrocyclopropa[e]pyrrolo[1,2-a][1,4]diazacyclopentadecin-6-yl)carbamate]: the half-maximal effective concentration (EC50) in experiment [1] and in experiment [2] was less than 5.46 nM throughout.
As for `COc1ccc2c(O[C@@H]3C[C@H]4C(=O)N[C@]5(C(=O)NS(=O)(=O)C6CC6)C[C@H]5/C=C\CC[C@@H](C)C[C@@H](C)[C@H](NC(=O)O[C@H](C)C(F)(F)F)C(=O)N4C3)nc(-c3ccc(OC(C)C)cn3)cc2c1` [Compound 5207, (R)-1,1,1-trifluoropropan-2-yl ((2R,6S,7R,9R,13aS,14aR,16aS,Z)-14a-((cyclopropylsulfonyl)carbamoyl)-2-((3-(5-isopropoxypyridin-2-yl)-6-methoxyisoquinolin-1-yl)oxy)-7,9-dimethyl-5,16-dioxo-1,2,3,5,6,7,8,9,10,11,13a,14,14a,15,16,16a-hexadecahydrocyclopropa[e]pyrrolo[1,2-a][1,4]diazacyclopentadecin-6-yl)carbamate], the EC50 in experiment [1] and in experiment [2] was less than 5.46 nM each time.
Take `COc1ccc2c(O[C@@H]3C[C@H]4C(=O)N[C@]5(C(=O)NS(=O)(=O)C6CC6)C[C@H]5/C=C\CC[C@H](C)C[C@@H](C)[C@H](NC(=O)OC5C[C@@H]6C[C@@H]6C5)C(=O)N4C3)nc(-c3ccc(OC(C)C)cn3)cc2c1` (stereo partly drawn) [Compound 5208, (1R,3r,5S)-bicyclo[3.1.0]hexan-3-yl((2R,6S,7R,9S,13aS,14aR,16aS,Z)-14a-((cyclopropylsulfonyl)carbamoyl)-2-((3-(5-isopropoxypyridin-2-yl)-6-methoxyisoquinolin-1-yl)oxy)-7,9-dimethyl-5,16-dioxo-1,2,3,5,6,7,8,9,10,11,13a,14,14a,15,16,16a-hexadecahydrocyclopropa[e]pyrrolo[1,2-a][1,4]diazacyclopentadecin-6-yl)carbamate]: the half-maximal effective concentration (EC50) in experiment [1] and in experiment [2] was less than 5.46 nM each time.
In the case of `COc1ccc2c(O[C@@H]3C[C@H]4C(=O)N[C@]5(C(=O)NS(=O)(=O)C6CC6)C[C@H]5/C=C\CC[C@@H](C)C[C@@H](C)[C@H](NC(=O)OC5C[C@@H]6C[C@@H]6C5)C(=O)N4C3)nc(-c3ccc(OC(C)C)cn3)cc2c1` (stereo partly drawn) [Compound 5209, (1R,3r,5S)-bicyclo[3.1.0]hexan-3-yl((2R,6S,7R,9R,13aS,14aR,16aS,Z)-14a-((cyclopropylsulfonyl)carbamoyl)-2-((3-(5-isopropoxypyridin-2-yl)-6-methoxyisoquinolin-1-yl)oxy)-7,9-dimethyl-5,16-dioxo-1,2,3,5,6,7,8,9,10,11,13a,14,14a,15,16,16a-hexadecahydrocyclopropa[e]pyrrolo[1,2-a][1,4]diazacyclopentadecin-6-yl)carbamate], the EC50 in experiment [1] and in experiment [2] was less than 5.46 nM in each case.
